Where two headings read alike, the source gives them in different places.
Key:
OCI-LY10 = OCI-LY10 viability, CTG; type: cell-based; conditions: for IC50: Homo sapiens, OCI-Ly10
IRAK4 [1] = target: T1, IRAK4 (Homo sapiens (Human), UniProt Q9NWZ3); assay: IRAK4 degradation in human whole blood monocyte - flow cytometry; type: cell-based; conditions: read-out: IRAK4 degradation in whole blood monocyte-Flow cytometry: Average external Abs IC50
Summary of the method: (§1)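 Fresh heparinized human whole blood dosed (10-point, 5-fold, 0.1% DMSO) for 20 h or 4 h at 37 °C, then fixed, stained and IRAK4 MFI quantified by flow in CD14+ monocytes and CD14− lymphocytes. DC50 and Dmax via 4-parameter logistic fit normalized to DMSO and 10 μM control.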

IRAK4 [2] = target: T1, IRAK4; assay: IRAK4 degradation in human whole blood lymphocyte - flow cytometry; type: cell-based; conditions: read-out: IRAK4 degradation in whole blood lymphocyte-Flow cytometry: Average external Abs IC50
Summary of the method: as §1

OCI-LY10 cells = assay: In vitro combination studies in OCI-LY10 (Chou-Talalay); type: cell-based, human
Description: The ABC-DLBCL cell line OCI-LY10 was MV4-11 cells were maintained in IMDM (Invitrogen, supplemented with 20% heat inactivated fetal bovine serum (Life Technologies, Grand Island, N.Y) plus+BME. Cultures were maintained in a humidified atmosphere including 5% CO2. Studies were performed using OCI-LY10 cells in vitro to evaluate the anti-proliferative effect of a combination of two agents together on cell growth. The cell counts were measured by ATP quantitation using the Promega Cell Titer Glo kit and luminescence values corresponded to the amount of ATP in a given well. Compounds evaluated for synergy were tested in a range which was bracketed around the IC50's. The compounds were plated to a 384 well plate in a matrix format which includes increasing concentrations of each drug in the combination in a constant ratio, in addition to the effect of each compound alone in the study. […] DMSO concentration was less than 0.2% v/v.
The drug combination analysis was performed utilizing the Chou-Talalay method [Chou TC Pharmacological Reviews 2006]. Maximum and minimum inhibition (DMSO alone) controls were used in each plate to calculate fraction affected (Fa) of a test well. […] Synergy was determined using the software package Calcusyn by Biosoft. Graphs representing values of combination index (CI) versus Fractional effect (Fa) known as Fa-CI plots were generated and synergy was evaluated.

IKAROS = IKAROS (Homo sapiens (Human), UniProt Q13422+Q96SW2); assay: IKAROS degradation in OCI-LY10 (DC50); type: cell-based
IKAROS, sequence (Q13422 whole entry): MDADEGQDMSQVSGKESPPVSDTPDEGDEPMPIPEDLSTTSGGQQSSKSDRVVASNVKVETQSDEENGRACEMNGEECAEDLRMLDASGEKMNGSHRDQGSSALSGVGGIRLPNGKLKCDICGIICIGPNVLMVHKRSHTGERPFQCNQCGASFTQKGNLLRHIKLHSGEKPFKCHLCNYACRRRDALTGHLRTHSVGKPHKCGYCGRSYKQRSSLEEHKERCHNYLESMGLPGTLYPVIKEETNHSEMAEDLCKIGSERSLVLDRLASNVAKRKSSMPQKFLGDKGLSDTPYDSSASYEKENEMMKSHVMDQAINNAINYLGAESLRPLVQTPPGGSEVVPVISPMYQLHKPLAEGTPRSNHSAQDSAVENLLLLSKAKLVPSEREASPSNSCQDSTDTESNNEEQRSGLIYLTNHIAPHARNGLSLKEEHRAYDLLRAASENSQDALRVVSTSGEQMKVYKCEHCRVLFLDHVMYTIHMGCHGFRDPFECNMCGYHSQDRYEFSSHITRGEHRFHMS
IKAROS, sequence (Q96SW2 whole entry): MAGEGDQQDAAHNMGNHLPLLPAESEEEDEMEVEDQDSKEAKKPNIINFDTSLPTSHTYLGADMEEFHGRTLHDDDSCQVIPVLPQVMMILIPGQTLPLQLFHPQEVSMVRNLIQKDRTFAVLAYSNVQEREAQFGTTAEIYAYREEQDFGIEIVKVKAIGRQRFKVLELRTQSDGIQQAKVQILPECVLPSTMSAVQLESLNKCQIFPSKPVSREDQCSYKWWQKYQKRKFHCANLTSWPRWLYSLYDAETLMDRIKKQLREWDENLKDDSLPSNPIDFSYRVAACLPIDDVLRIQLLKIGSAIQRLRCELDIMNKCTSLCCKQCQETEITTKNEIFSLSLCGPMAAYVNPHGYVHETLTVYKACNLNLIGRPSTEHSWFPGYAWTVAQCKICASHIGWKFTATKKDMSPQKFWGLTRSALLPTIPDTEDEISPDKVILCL
IKAROS, sequence (Q16531 whole entry partner): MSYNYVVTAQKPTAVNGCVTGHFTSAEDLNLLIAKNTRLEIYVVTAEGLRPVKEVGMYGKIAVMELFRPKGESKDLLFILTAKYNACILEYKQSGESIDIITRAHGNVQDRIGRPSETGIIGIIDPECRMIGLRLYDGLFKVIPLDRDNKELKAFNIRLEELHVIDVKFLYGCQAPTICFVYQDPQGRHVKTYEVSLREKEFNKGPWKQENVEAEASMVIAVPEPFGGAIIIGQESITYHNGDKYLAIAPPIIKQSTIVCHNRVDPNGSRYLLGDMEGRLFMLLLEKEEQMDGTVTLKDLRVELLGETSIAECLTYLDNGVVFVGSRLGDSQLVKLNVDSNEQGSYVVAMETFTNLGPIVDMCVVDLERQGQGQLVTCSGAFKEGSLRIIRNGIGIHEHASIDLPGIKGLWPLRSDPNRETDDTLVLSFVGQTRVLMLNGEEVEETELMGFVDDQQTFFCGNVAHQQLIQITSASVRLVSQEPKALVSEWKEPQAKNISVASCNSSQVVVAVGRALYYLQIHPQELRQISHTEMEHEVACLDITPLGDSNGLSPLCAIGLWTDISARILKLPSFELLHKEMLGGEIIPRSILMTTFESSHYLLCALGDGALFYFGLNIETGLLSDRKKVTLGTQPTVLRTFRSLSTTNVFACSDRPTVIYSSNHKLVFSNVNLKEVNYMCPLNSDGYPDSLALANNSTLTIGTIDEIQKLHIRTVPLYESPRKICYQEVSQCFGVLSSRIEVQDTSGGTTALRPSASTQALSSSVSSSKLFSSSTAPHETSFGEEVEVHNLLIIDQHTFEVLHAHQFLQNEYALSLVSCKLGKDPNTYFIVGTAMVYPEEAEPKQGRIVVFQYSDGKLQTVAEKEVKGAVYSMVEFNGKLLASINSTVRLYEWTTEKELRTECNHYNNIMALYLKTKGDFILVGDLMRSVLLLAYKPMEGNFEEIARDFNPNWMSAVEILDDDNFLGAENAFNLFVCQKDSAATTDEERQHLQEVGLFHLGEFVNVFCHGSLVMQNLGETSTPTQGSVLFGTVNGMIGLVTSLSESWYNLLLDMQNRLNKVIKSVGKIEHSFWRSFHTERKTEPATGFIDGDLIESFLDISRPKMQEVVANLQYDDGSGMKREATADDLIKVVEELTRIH

IRAK4 [3] = target: T1, IRAK4; assay: IRAK4 quantification in xenograft tumors by UPLC-MS/MS (tumor PD); type: in vivo, mouse; conditions: OCI-LY10 xenograft-bearing mice, oral dosing; FIG. 14
Description: At termination: At pre-determined time points based on study design, animals were humanely sacrificed by CO2. Blood was obtained by cardiac puncture for isolation of plasma, any residual tumor was removed and divided in 2 portions, 1 (minimal) for terminal compound exposure and 1 to determine IRAK4 and actin. Compound was determined in tumor and plasma using LC/MS with calibrated standards.
Interleukin-1 receptor-associated kinase 4 (IRAK4) was quantified in human OCI-LY10 and TMD8 xenograft tumors, together with mouse splenocytes and peripheral blood mononuclear cells (PBMCs), by ultra-performance liquid chromatography-tandem mass spectrometry (UPLC-MS/MS). The concentrations of IRAK4 were normalized by the concentrations of actin in the respective samples. […]
Signature peptide concentrations were quantitated using a sensitive and specific targeted LC-MS/MS method. […]
Signature peptide levels (LAVAIK, […]) were quantified by UPLC-MS/MS. […] A SCIEX TripleTOF 6600 LC-MS/MS system was used for the detection and quantitation of analytes. The intensities of the analytes and ISs were determined by integration of extracted ion peak areas using Analyst and MultiQuant 3.0 software. […] Measured peptide levels were corrected for sample work up and converted to actual protein concentrations in ng/mg total protein of cell lysate. […]

T1 sequence (Q9NWZ3 whole entry): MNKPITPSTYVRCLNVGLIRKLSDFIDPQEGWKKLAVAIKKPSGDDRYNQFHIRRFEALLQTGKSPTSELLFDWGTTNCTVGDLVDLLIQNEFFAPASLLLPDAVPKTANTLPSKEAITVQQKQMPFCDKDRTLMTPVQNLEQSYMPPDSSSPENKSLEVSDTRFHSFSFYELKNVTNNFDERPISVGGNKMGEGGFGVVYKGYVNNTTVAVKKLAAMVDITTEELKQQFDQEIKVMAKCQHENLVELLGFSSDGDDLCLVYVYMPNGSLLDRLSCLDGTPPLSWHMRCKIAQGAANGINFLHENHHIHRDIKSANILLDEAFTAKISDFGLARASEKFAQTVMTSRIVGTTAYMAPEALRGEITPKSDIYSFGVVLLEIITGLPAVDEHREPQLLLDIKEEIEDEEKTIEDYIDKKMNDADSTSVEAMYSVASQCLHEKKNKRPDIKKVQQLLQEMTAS

CN(CCCOCCCc1cccc2c1n(C)c(=O)n2C1CCC(=O)NC1=O)C[C@H]1CC[C@H](n2cc(NC(=O)c3coc(-c4ccnc(NCC5CC5)c4)n3)c(C(F)F)n2)CC1 (mixture of isomers) [I-30, 2-[2-(Cyclopropylmethylamino)-4-pyridyl]-N-[3-(difluoromethyl)-1-[4-[[3-[3-[1-(2,6-dioxo-3-piperidyl)-3-methyl-2-oxo-benzimidazol-4-yl]propoxy]propyl-methyl-amino]methyl]cyclohexyl]pyrazol-4-yl] oxazole-4-carboxamide]
Cell Titer Glo assay, combination effect (OCI-LY10; combination of ibrutinib and degrader I-30 (FIG. 12B)): synergism | IC50 (IRAK4 [1]): < 50 nM | DC50 (IRAK4 [2]): < 50 nM | apoptosis, combined with a BTK inhibitor (OCI-LY10 cells; OCI-LY10 bearing MYD88 L265P and CD79 mutations, within 72 h, FIG. 12): greater than additive increase in apoptosis | synergy with BTK inhibition vs cell viability (OCI-LY10 cells; four day Cell Titer Glo read out): synergistic

CN(C[C@H]1CC[C@H](n2cc(NC(=O)c3coc(-c4ccnc(NCC5CC5)c4)n3)c(C(F)F)n2)CC1)C1CCN(Cc2cccc3c2n(C)c(=O)n3C2CCC(=O)NC2=O)CC1 (some centres unmarked) [I-75, 2-(2-((cyclopropylmethyl)amino)pyridin-4-yl)-N-(3-(difluoromethyl)-1-((1r,4r)-4-(((1-((1-(2,6-dioxopiperidin-3-yl)-3-methyl-2-oxo-2,3-dihydro-1H-benzo[d]imidazol-4-yl)methyl)piperidin-4-yl)(methyl)amino)methyl)cyclohexyl)-1H-pyrazol-4-yl)oxazole-4-carboxamide]
DC50 (IKAROS): > 100 nM | IC50 (OCI-LY10; MYD88 MUT, read-out: OCI-LY10 CTG IC50): 11 nM | IC50 (OCI-LY10; MYD88 Mutant Lines, read-out: OCI-LY10 Viability, CTG IC50): 11 nM | DC50 (IRAK4 [1]): 50 to 100 nM | DC50 (IRAK4 [2]): 50 to 100 nM | degradation of IRAK4 correlating with tumor regression (IRAK4 [3]): > 75%

Source: US11352350B2, “IRAK degraders and uses thereof” (Kymera Therapeutics, Inc., priority 2018, dated 2022)
